The values that follow come from patent publication US6362216B1, “Compounds which inhibit tryptase activity” (Array Biopharma Inc., priority 1998, dated 2002).

Type in all cases: biochemical
In test [1] the target is T1, Human Neutrophil Cathepsin G (Homo sapiens, UniProt P08311).
T1 construct: from tissue; host or cells: human neutrophils
T1 sequence (P08311 21-244): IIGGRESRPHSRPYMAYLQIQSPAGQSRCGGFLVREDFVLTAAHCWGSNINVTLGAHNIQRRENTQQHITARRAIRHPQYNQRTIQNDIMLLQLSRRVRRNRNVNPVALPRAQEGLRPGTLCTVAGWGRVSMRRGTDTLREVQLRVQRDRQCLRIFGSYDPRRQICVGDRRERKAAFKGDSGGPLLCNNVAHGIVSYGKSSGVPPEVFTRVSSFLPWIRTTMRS
As to the kind of experiment: Human neutrophil cathepsin G inhibition, N-Suc-Ala-Ala-Pro-Phe-pNA substrate. As to conditions: 625 mM Tris-HCl, pH 7.5, 2.5 mM MgCl2, 0.125% Brij 35. The procedure: (§1) Protease inhibition was assayed according to published procedures with minor modifications using various proteases and specific chromogenic peptide p-nitroanilide substrates. Assays were performed in Costar ultra-low cluster 96-well microtiter plate (Costar Corning Corp., Cambridge Mass.). Each protease was incubated with various concentrations of the test compound for 15 min. at 37° C. or as otherwise indicated, in specific assay buffer, and the residual activity was then measured by addition of the substrate. p-Nitroaniline produced by the proteolysis was determined by measuring the change in absorbance at 405 nm on a SpectraMAX 340 plate reader (Molecular devices, Sunnyvale, Calif.).
(§2) 1. The inhibition constant, Ki is calculated from individual data points using the equation for a tight-binding inhibitor (See Beith, “Proteinase Inhibitors-Proceedings of 2nd Int. Res. Conference”, Fritz, et al. eds., New York, p.4463-4469 (1974)):
(§3) The Ki values are obtained by correcting Ki ′ values for the effect of substrate concentration according to: [formula]
(§4) 2. Other inhibition data (Ki>>[E]o), the Ki is calculated from using the equations for a competitive inhibitor: [formula] […]
Human Neutrophil Cathepsin G activity was determined by using N-Suc-Ala-Ala-Pro-Phe-pNA in 625 mM Tris-HCl, pH 7.5, 2.5 mM MgCl2, 0.125% Brij 35 (See Groutas et al., Arch. Biochem. Biophys. 294, 144-146 (1992)). […]

In test [2] the target is Human r-tissue kallikrein (Homo sapiens, UniProt P06870). As to the kind of experiment: Human r-tissue kallikrein inhibition, DL-Val-Leu-Arg-pNA substrate. As to conditions: 50 mM Tris-HCl, pH 7.8, 200 mM NaCl, 0.05% BSA. Here is the method: as §1
(§5) 1. The inhibition constant, Ki is calculated from individual data points using the equation for a tight-binding inhibitor (See Beith, “Proteinase Inhibitors-Proceedings of 2nd Int. Res. Conference”, Fritz, et al. eds., New York, p.4463-4469 (1974)): […]
as §4
Human plasma and r-tissue kallikrein activity were determined in 50 mM Tris-HCl1, pH 7.8, 200 mM NaCl, 0.05% BSA by using H-D-Prolyl-Phe-Arg-pNA and DL-Val-Leu-Arg-pNA, respectively (See Lottenberg, et al., Meth. Enzymol. 80, 341-361 (1981)). […]

For test [3], the target named is T2, Human Neutrophil elastase (Homo sapiens, UniProt P08246).
T2 construct: from tissue; host or cells: human neutrophils
T2 sequence (P08246 30-267): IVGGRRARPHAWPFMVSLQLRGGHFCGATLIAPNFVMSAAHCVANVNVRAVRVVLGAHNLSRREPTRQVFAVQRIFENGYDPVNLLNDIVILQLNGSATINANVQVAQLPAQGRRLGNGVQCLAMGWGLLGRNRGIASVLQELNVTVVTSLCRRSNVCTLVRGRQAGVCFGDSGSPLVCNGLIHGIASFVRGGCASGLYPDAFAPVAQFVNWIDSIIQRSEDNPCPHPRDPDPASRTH
As to the kind of experiment: Human neutrophil elastase inhibition, pyroGlu-Pro-Val-pNA substrate. As to conditions: 100 mM Tris-HCl, pH 8.3, 0.96 M NaCl, 1% BSA. The procedure:
as §1, §5, §4
Human Neutrophil elastase activity was determined by using pyroGlu-Pro-Val-pNA in 100 mM Tris-HCl, pH 8.3, 0.96 M NaCl, 1% BSA (See Kramps, et al. Scand. J. Clin. Lab. Invest. 43, 427-432 (1983)).
The inhibition constant (Ki) of the test compounds against each proteolytic enzyme was determined according to Zitnik et al., Biochem. Biophys. […]

The next test deals with T3, Human plasma thrombin (Homo sapiens, UniProt P00734).
T3 construct: from tissue; host or cells: human plasma
Description: Human plasma thrombin inhibition, H-D-Phe-Pip-Arg-pNA substrate. As to conditions: the 5th table, unit inferred. Here is the method: as §1, §2, §3
(§6) 2. Other inhibition data (Ki>>[E]o), the Ki is calculated from using the equations for a competitive inhibitor: [formula]
Human plasma thrombin activity was determined by using H-D-Phe-Pip-Arg-pNA in 50 mM Tris-HCl, pH 8.3, 100 mM NaCl, 1% BSA (See Lottenberg, et al., Meth. Enzymol. 80, 341-361 (1981)).
(§7) The inhibition constant (Ki) of the test compounds against each proteolytic enzyme was determined according to Zitnik et al., Biochem. Biophys. Res. Commun. 232, 687-697 (1997)).

Test [4] concerns the target T4, Bovine pancreatic Trypsin (TPCK-treated) (Bos taurus, UniProt P00760).
T4 construct: from tissue; host or cells: bovine pancreas
T4 sequence (P00760 24-246): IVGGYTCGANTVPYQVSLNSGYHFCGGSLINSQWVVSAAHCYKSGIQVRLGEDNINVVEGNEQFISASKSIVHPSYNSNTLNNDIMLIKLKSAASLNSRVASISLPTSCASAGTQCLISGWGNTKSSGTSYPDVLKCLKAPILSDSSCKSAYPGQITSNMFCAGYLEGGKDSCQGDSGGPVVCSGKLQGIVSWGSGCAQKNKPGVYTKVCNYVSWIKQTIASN
Description: Bovine pancreatic trypsin inhibition, N-α-Benzoyl-L-Arg-pNA substrate. As to conditions: the 5th table, unit inferred. The procedure: as §1, §2, §3, §6
C. Bovine Pancreatic Trypsin
Bovine pancreatic Trypsin (TPCK-treated) activity was determined by using N-α-Benzoyl-L-Arg-pNA in 50 mM Tris-HCl, pH 8.2, 20 mM CaCl2 (See Somorin, et al., J. Biochem. 85, 157-162 (1979)).
as §7

Each structure is given as a SMILES string. A value given as a limit tells only on which side of the number the result lay.

Sequence of Human r-tissue kallikrein (P06870 25-262): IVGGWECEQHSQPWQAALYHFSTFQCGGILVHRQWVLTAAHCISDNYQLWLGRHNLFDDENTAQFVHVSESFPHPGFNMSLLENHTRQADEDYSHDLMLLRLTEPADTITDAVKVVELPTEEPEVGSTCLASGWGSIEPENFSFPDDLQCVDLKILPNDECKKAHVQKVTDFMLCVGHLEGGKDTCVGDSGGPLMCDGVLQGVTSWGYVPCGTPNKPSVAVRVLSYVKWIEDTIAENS

As usually defined, the Ki is a dissociation constant, usually derived from enzyme kinetics or from competition with a known ligand. A high value points to weaker binding. Regarding `Cc1cc2cc(CNC(=O)Cc3cc4cc(C(=N)N)ccc4s3)ccc2[nH]1` [drawing 17 Benzthiophene 5-carboxamidine n=1], the Ki was greater than 100 µM in test [1]; greater than 100 µM in test [2]; greater than 100 µM in test [3]; 25.8 µM at Human plasma thrombin; 2.4 µM in test [4].
